System: Staphylococcus epidermidis biofilms
Experiment: Sterilization of S. epidermidis biofilms, minimal exposure time at 22° C. (supravital dye, confirmed by culture)
Type: cell-based
From the text: This example compares and contrasts the cidal effectiveness of compositions of the invention with other disinfectants and antibiotics against Staphylococcus epidermidis biofilms, which are frequently observed on the surface of C.A.P.D. peritoneal catheters even in the absence of peritonitis or exit site infections.
A strain of S. epidermidis with characteristic abundant slime production, and derived from a human source, is used to prepare the biofilms. The isolate is fully sensitive in the fluid phase to all commonly used antibiotics as assayed using routine test methods. Aliquots of the bacteria are frozen at -70° C. in 10% glycerol broth or propagated on 5% defibrinated horse blood agar. Standardized biofilms are formed on soda glass microscope slides or slides coated with Silastic® (the basic material of indwelling catheters; see Cecil's, cited above, on page 542), placed in Petri dishes containing 20 ml of tryptone soya broth (Oxoid Ltd., England), seeded with 10^4 cfu S. epidermidis and incubated for 18 hours at 37° C. Reproducible uniform and confluent S. epidermidis biofilms of minimal density are formed.
Antibiotic activity against S. epidermidis biofilms are determined using a supravital dye which acts as an electron acceptor in coupled oxidative systems in biofilm bacteria. The method allows the bacteria to be examined undisturbed within the biofilm matrix in situ. Briefly stated, the biofilms are exposed to antibiotic solutions and incubated at […] for varying periods of time. Positive (viable, 1% peptone water) and negative (sterilized, 4% formol-peptone) controls are included in all experiments. After a designated exposure at 22° C. for varying periods of time between 15 seconds to 6 hours, the biofilms are rinsed twice in sterile water and allowed to drain. They are then placed in a flat agar medium incorporating substantive dyes and incubated at 37° C. for 4 hours, then 24 hours. Viability is assessed visually by a change in dye color and confirmed after 24 hours by mechanically scraping and subsequently culturing the biofilms. Sterilization is indicated by the absence of color changes and confirmed by culture of both intact and mechanically fragmented biofilms. Inhibition of growth is indicated by a lack of color change after a 4-hour incubation and confirmed by a positive color change by 24 hours.

Row | Structure (SMILES) | contact time relative to 50 ppm ClO2 to destroy the organisms in the biofilm (3% concentration, vs 50 ppm ClO2) [times] | Exposure Time (22° C.) for Film Sterilization [min] | Exposure Time (22° C.) for Film Sterilization (100 μg/ml) [min]
1 | OO [Hydrogen Peroxide (3%), Hydrogen Peroxide] | 1200 | 10 | 
2 | CO[C@H]1/C=C/O[C@@]2(C)Oc3c(C)c(O)c4c(O)c(c(/C=N/N5CCN(C)CC5)c(O)c4c3C2=O)NC(=O)/C(C)=C\C=C\[C@H](C)[C@H](O)[C@@H](C)[C@@H](O)[C@@H](C)[C@H](OC(C)=O)[C@@H]1C [rifampin] |  |  | 360
